# Assay results reported in paper PMC10354055, “An optimized Nurr1 agonist provides disease-modifying effects in Parkinson’s disease models” (Nature Communications, 2023).
# pEC50: −log10 of the molar value. Values joined by “and” are separate entries in the source; they are usually repeats but may differ in a detail not shown here. Identical values can stand only once.
# Legend:
# [1] = target: T1, Nurr1-LBD (Mus musculus, UniProt Q06219); assay: Luciferase reporter assay, Nurr1-LBD, SK-N-BE(2)C cells; type: cell-based; settings: for Luciferase activity (fold): Fig. 1d
# T1 construct: transfected with pCMV-fNurr1, pGAL-Nurr1(LBD), pGAL-Nor1(LBD) or pGAL-Nur77(LBD) and reporter construct; expressed in transfected cells; host or cells: SK-N-BE(2)C (human neuroblastoma), N27-A (rat dopaminergic), MN9D (murine dopaminergic)
# From the text: Nurr1 transactivity was normalized to β-galactosidase activity.
# [2] = tested on: N27-A cells; assay: Mitochondrial activity assay, Seahorse XFp, N27-A cells; type: cell-based, rat; design: Seahorse time trace (OCR): unit not given here; settings: for OCR changes after FCCP injection: MPP+ co-treatment, individual replicates (Supplementary Figure S1o); for Seahorse time trace (OCR) / Basal respiration / Maximal respiration / ATP turnover: replicates; for Basal respiration: Fig. S1l; for Basal respiration / Maximal respiration / ATP turnover: with MPP+; for Maximal respiration: Fig. S1m; for ATP turnover: Fig. S1n
# Description: Mitochondrial activity was measured using the Seahorse XFp analyzer (Agilent Technologies) according to the manufacturer’s instruction. Briefly, cells were plated onto wells of a XFp cell culture miniplate and incubated in a 37 °C incubator overnight. The assay was performed after cells were equilibrated for 1 h in XF assay medium supplemented with 10 mM D-glucose, 5 mM sodium pyruvate, and 2 mM glutamax in a non-CO2 incubator. Mitochondrial activity was monitored through sequential injections of 1 μM oligomycin, 2 μM carbonyl cyanide-4 (trifluoromethoxy) phenylhydrazone (FCCP) and 0.5 μM rotenone/antimycin A to calculate basal respiration (= baseline oxygen consumption rate (OCR)−rotenone/antimycin A OCR), maximal respiration (= FCCP OCR−rotenone/antimycin A OCR), ATP turnover (= baseline OCR−oligomycin OCR), and OCR changes after FCCP injection (= FCCP OCR−oligomycin OCR). Each plotted value was normalized to total protein quantified using a Bradford protein assay (Bio-Rad) and analyzed using the Seahorse WAVE Desktop software (Agilent Technologies).
# [3] = tested on: Nurr1 protein; assay: Nurr1 protein level, Western blot, MN9D cells with MPP+ or αSyn overexpression; type: cell-based, mouse; settings: for Relative Nurr1 expression (% of Cont.): Fig. S4g; for Relative Nurr1 expression (% of +GFP Basal): Fig. S4i
# Description: Experiments were confirmed by duplicate measurements of the same sample. Quantification of immunoreactive bands was performed using ImageJ software (NIH, Bethesda, MD, USA) and expressed as a relative ratio against β-actin.
# Lenti-GFP, -αSyn^WT, and -αSyn^A53T viruses were generated separately by co-transfecting each shuttle plasmid with lentivirus packaging plasmids into HEK293T cells using lipofectamine 2000 (Invitrogen). Briefly, 2 μg each FUW inducible shuttle plasmid, 2 μg FUW-rtTA, 2 μg psPax2 and 1.5 μg MD2.G were mixed and transfected into HEK293T cells. After 48 h, viral supernatants were collected and centrifuged at 1000g for 10 min, and subsequently filtered through a 0.45 μm filter. Lentiviruses were transduced into MN9D cells with 8 μg/ml of polybrene and the viral supernatant was removed and replaced with fresh medium a day after transduction.
# [4] = tested on: N27-A cells; assay: Autophagolysosome (APL) formation assay, mRFP-GFP-LC3, N27-A cells; type: cell-based, rat; settings: Figure 3b; mRFP-GFP-LC3; individual cells (30 per treatment)
# Description: HeLa and N27-A cells were transfected with tandem mRFP-GFP-LC3 (Addgene) plasmid using Lipofectamine 2000 (Invitrogen) in 24-well plates. After 24 h, cells were incubated in starvation medium (Earle’s Balanced Salt Solution, EBSS; Lonza) containing bafilomycin A1 (BafA1, 10 nM), CQ (20 µM), or 4A7C-301 (1 µM) for 6 h and then fixed with 4% formaldehyde for fluorescence detection. Images were taken using a KEYENCE microscope and red (mRFP) LC3 dots and yellow (mRFP+GFP) LC3 dots were counted from three independent wells for each treatment group. 10 cells were randomly selected and counted from each well and a total of 30 cells were analyzed for each treatment group in both HeLa and N27-A cells.
# [5] = tested on: AAV-αSyn-induced male mice; assay: Pole test, AAV-αSyn-induced PD model mice; type: in vivo, mouse; settings: αSynWT and αSynA53T mice; CQ 40, 4A7C-301 5 mg/kg/day i.p.
# From the text: Adeno-associated viruses (AAVs) expressing GFP only or αSyn (wild-type or A53T) were kindly provided by Dr. Yoon Seong Kim from the University of Central Florida. Recombinant AAV vectors were produced using modified pAAV-IRES-hrGFP (Agilent) to express wild-type and mutant human αSyn under control of the CMV promoter. Viral particles (AAV2) were produced at the University of Iowa Viral Vector Core according to standard operating procedures (https://medicine.uiowa.edu/vectorcore/). […] AAV vectors were delivered into the substantia nigra unilaterally by stereotaxic surgery.
# Mice were trained to descend a vertical metal rod wrapped with rough tape (80 cm high, 12 mm diameter) once per day for 2 days, and then the baseline was measured before the pole test (3 days before the MPTP injection or the first pole test at week 2). Mice were placed head-upward on the pole and total descent time was recorded.
# T1 sequence (Q06219 360-595 limits assumed): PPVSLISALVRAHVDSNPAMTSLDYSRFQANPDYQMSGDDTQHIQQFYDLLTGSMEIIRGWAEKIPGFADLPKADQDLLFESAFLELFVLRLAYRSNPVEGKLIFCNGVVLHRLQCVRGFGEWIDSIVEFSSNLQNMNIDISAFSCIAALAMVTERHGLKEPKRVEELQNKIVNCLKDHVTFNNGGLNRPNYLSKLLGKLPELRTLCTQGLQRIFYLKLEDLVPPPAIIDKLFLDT
compound,measurement,setting,value
"CCN1CCN(c2cc(N3CCN(CC)CC3)nc(NCCNc3ccnc4cc(Cl)ccc34)n2)CC1 [4A7C-301, N^1-(4,6-bis(4-ethylpiperazin-1-yl)pyrimidin-2-yl)-N^2-(7-chloroquinolin-4-yl)ethane-1,2-diamine]","Luciferase activity (fold), Nurr1","[1]; Fig. 1f, CQ 100 µM, 4A7C-301 20 µM",16.1033 fold and 17.0687 fold and 15.1126 fold
same,Luciferase activity (fold),[1]; 0.1 µM,1.566 fold and 1.556 fold and 1.583 fold
same,Luciferase activity (fold),[1]; 1 µM,2.853 fold and 2.913 fold and 2.848 fold
same,Luciferase activity (fold),[1]; 10 µM,8.938 fold and 9.512 fold and 11.2109 fold
same,Luciferase activity (fold),[1]; 20 µM,17.8435 fold and 18.5652 fold and 17.952 fold
same,pEC50,"[1]; Nurr1-LBD and full-length Nurr1, SK-N-BE(2)C cells, Fig. 1d,e",5.10 to 5.15
same,Maximum fold activity,"[1]; Nurr1 activation, Supplementary Table 1",18.12 ± 3.02 fold and 18.12 fold
same,EC50,"[1]; Nurr1 activation, Supplementary Table 1, values in µM",6.53 µM
same,OXPHOS capacity reduced by MPP+ (in words),"[2]; CQ 100 µM, 4A7C-301 1 µM",efficiently restored
same,OCR changes after FCCP injection,[2]; Control N27-A cells,22.93 pmol/min/µg protein and 28.37 pmol/min/µg protein and 27.04 pmol/min/µg protein and 22.31 pmol/min/µg protein
same,Seahorse time trace (OCR),"[2]; Fig. S1j/k, Control + MPP+, time 2 min",28.88 and 28.2 and 18.44 and 14.94
same,Seahorse time trace (OCR),"[2]; Fig. S1j/k, Control + MPP+, time 8 min",28.86 and 28.61 and 14.72 and 11.2
same,Seahorse time trace (OCR),"[2]; Fig. S1j/k, Control + MPP+, time 15 min",28.17 and 28.8 and 13.75 and 10.54
same,Seahorse time trace (OCR),"[2]; Fig. S1j/k, Control + MPP+, time 21 min",9.43 and 9.81 and 3.69 and 2.8
same,Seahorse time trace (OCR),"[2]; Fig. S1j/k, Control + MPP+, time 28 min",9.7 and 9.86 and 4.4 and 3.39
same,Seahorse time trace (OCR),"[2]; Fig. S1j/k, Control + MPP+, time 34 min",9.59 and 9.6 and 4.42 and 3.28
same,Seahorse time trace (OCR),"[2]; Fig. S1j/k, Control + MPP+, time 41 min",32.36 and 38.18 and 30.73 and 25.11
same,Seahorse time trace (OCR),"[2]; Fig. S1j/k, Control + MPP+, time 47 min",29.9 and 35.04 and 27.29 and 22.64
same,Seahorse time trace (OCR),"[2]; Fig. S1j/k, Control + MPP+, time 54 min",29.63 and 34.46 and 27.32 and 22.95
same,Seahorse time trace (OCR),"[2]; Fig. S1j/k, Control + MPP+, time 61 min",9.52 and 9.47 and 4.93 and 3.5
same,Seahorse time trace (OCR),"[2]; Fig. S1j/k, Control + MPP+, time 67 min",9.83 (2×) and 4.57 and 3.36
same,Seahorse time trace (OCR),"[2]; Fig. S1j/k, Control + MPP+, time 74 min",9.8 and 10.29 and 4.41 and 3.28
same,Seahorse time trace (OCR),"[2]; Fig. S1j, Nurr1 OE + MPP+, time 2 min",21.96 and 38.12 and 34.89 and 26.1
same,Seahorse time trace (OCR),"[2]; Fig. S1j, Nurr1 OE + MPP+, time 8 min",20.5 and 33.32 and 33.36 and 24.15
same,Seahorse time trace (OCR),"[2]; Fig. S1j, Nurr1 OE + MPP+, time 15 min",22.25 and 31.43 and 31.49 and 19.26
same,Seahorse time trace (OCR),"[2]; Fig. S1j, Nurr1 OE + MPP+, time 21 min",7.36 and 10.03 and 6.69 and 7.02
same,Seahorse time trace (OCR),"[2]; Fig. S1j, Nurr1 OE + MPP+, time 28 min",8.04 and 9.23 and 7.6 and 8.44
same,Seahorse time trace (OCR),"[2]; Fig. S1j, Nurr1 OE + MPP+, time 34 min",7.79 and 8.85 and 8.38 and 8.58
same,Seahorse time trace (OCR),"[2]; Fig. S1j, Nurr1 OE + MPP+, time 41 min",58.47 and 42.11 and 44.82 and 40.84
same,Seahorse time trace (OCR),"[2]; Fig. S1j, Nurr1 OE + MPP+, time 47 min",58.99 and 40.77 and 43.63 and 37.36
same,Seahorse time trace (OCR),"[2]; Fig. S1j, Nurr1 OE + MPP+, time 54 min",57.85 and 39.58 and 42.17 and 36.47
same,Seahorse time trace (OCR),"[2]; Fig. S1j, Nurr1 OE + MPP+, time 61 min",7.42 and 11.41 and 5.09 and 5.68
same,Seahorse time trace (OCR),"[2]; Fig. S1j, Nurr1 OE + MPP+, time 67 min",7.08 and 11.69 and 6.18 and 6.3
same,Seahorse time trace (OCR),"[2]; Fig. S1j, Nurr1 OE + MPP+, time 74 min",8.5 and 11.39 and 6.45 and 6.32
same,Seahorse time trace (OCR),"[2]; Fig. S1k, Nurr1 KD + MPP+, time 2 min",9.8 and 10.5 and 12.93 and 13.97
same,Basal respiration,[2]; Control cells,19.37 pmol/min/µg protein and 19.34 pmol/min/µg protein and 12.02 pmol/min/µg protein and 10.67 pmol/min/µg protein
same,Basal respiration,[2]; Nurr1 KD cells,6.31 pmol/min/µg protein and 5.78 pmol/min/µg protein and 7.24 pmol/min/µg protein and 8.35 pmol/min/µg protein
same,Basal respiration,[2]; Nurr1 OE cells,19.17 pmol/min/µg protein and 26.73 pmol/min/µg protein and 28.79 pmol/min/µg protein and 22.43 pmol/min/µg protein
same,Maximal respiration,[2]; Control cells,22.85 pmol/min/µg protein and 28.71 pmol/min/µg protein and 26.31 pmol/min/µg protein and 21.83 pmol/min/µg protein
same,Maximal respiration,[2]; Nurr1 KD cells,28.48 pmol/min/µg protein and 29.74 pmol/min/µg protein and 27.18 pmol/min/µg protein and 19.97 pmol/min/µg protein
same,Maximal respiration,[2]; Nurr1 OE cells,51.91 pmol/min/µg protein and 33.72 pmol/min/µg protein and 39.72 pmol/min/µg protein and 35.16 pmol/min/µg protein
same,ATP turnover,[2]; Control cells,19.25 pmol/min/µg protein and 18 pmol/min/µg protein and 12.75 pmol/min/µg protein and 12.14 pmol/min/µg protein
same,ATP turnover,[2]; Nurr1 KD cells,5.27 pmol/min/µg protein and 5.05 pmol/min/µg protein and 6.03 pmol/min/µg protein and 7.23 pmol/min/µg protein
same,ATP turnover,[2]; Nurr1 OE cells,17.88 pmol/min/µg protein and 29.57 pmol/min/µg protein and 28.2 pmol/min/µg protein and 20.09 pmol/min/µg protein
same,OCR changes after FCCP injection,[2]; Nurr1 KD N27-A cells,27.63 pmol/min/µg protein and 29.1 pmol/min/µg protein and 27.24 pmol/min/µg protein and 20.05 pmol/min/µg protein
same,OCR changes after FCCP injection,[2]; Nurr1 OE N27-A cells,50.72 pmol/min/µg protein and 34.26 pmol/min/µg protein and 38.13 pmol/min/µg protein and 33.82 pmol/min/µg protein
same,Relative Nurr1 expression (% of Cont.),[3]; w/ MPP+,99.091 % of Cont. and 100.486 % of Cont. and 100.693 % of Cont.
same,Relative Nurr1 expression (% of Cont.),[3]; w/o MPP+,101.351 % of Cont. and 99.92 % of Cont. and 104.55 % of Cont.
same,Relative Nurr1 expression (% of +GFP Basal),[3]; + GFP,98.029 % of +GFP Basal and 101.483 % of +GFP Basal and 98.211 % of +GFP Basal
same,Relative Nurr1 expression (% of +GFP Basal),[3]; + αSynA53T,84.572 % of +GFP Basal and 86.142 % of +GFP Basal and 86.409 % of +GFP Basal
same,Relative Nurr1 expression (% of +GFP Basal),[3]; + αSynWT,92.781 % of +GFP Basal and 95.357 % of +GFP Basal and 90.953 % of +GFP Basal
same,Nurr1 protein levels (in words),[3]; against MPP+ and αSynWT overexpression,significantly restored
same,Nurr1 protein levels (in words),[3]; against αSynA53T overexpression,maintained
same,"LC3 dots/cell, Red LC3 dots",[4],22 dots/cell (5×) and 32 dots/cell and 15 dots/cell and 27 dots/cell (6×) and 21 dots/cell (4×) and 26 dots/cell (2×) and 34 dots/cell and 31 dots/cell (2×) and 19 dots/cell (3×) and 12 dots/cell and 17 dots/cell (2×) and 16 dots/cell and 20 dots/cell
same,"LC3 dots/cell, Yellow LC3 dots",[4],9 dots/cell (2×) and 10 dots/cell (3×) and 16 dots/cell (2×) and 11 dots/cell (4×) and 20 dots/cell (2×) and 3 dots/cell (2×) and 4 dots/cell (2×) and 5 dots/cell (3×) and 15 dots/cell and 17 dots/cell and 14 dots/cell (3×) and 6 dots/cell (2×) and 7 dots/cell and 2 dots/cell and 12 dots/cell
same,"motor deficits, pole test (in words)",[5],improved motor deficits
